Results from ChEMBL document CHEMBL1201862, “PubChem BioAssay data set” (2004).
Activity calls are given as the source filed them.

Columns and labels:
[1] = target: Intestinal-type alkaline phosphatase (Homo sapiens, UniProt P09923); experiment: inhibition of human intestinal alkaline phosphatase – biochemical, dose response (AID 488876); format: functional
[2] = target: T1, Alkaline phosphatase, tissue-nonspecific isozyme (Homo sapiens, UniProt P05186); experiment: TNAP enzyme inhibition by screening hits, dose response, selectivity assay for mouse IAP inhibitor project, biochemical, human TNAP, uHTS hits (AID 488906); format: functional
T1 sequence (P05186 whole entry): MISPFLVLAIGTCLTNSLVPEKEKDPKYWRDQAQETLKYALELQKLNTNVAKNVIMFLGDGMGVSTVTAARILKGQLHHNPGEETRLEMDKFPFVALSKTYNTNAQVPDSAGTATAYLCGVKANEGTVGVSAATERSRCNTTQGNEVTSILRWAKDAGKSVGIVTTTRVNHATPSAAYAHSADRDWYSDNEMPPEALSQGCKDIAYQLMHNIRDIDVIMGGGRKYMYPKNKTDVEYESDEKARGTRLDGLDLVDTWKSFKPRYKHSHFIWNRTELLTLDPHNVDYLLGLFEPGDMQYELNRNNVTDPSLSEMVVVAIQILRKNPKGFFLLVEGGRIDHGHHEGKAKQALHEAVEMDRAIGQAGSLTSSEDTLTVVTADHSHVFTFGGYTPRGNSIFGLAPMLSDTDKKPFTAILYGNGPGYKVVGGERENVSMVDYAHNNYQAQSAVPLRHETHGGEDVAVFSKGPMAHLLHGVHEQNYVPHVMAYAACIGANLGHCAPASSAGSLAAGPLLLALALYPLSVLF

[3] = target: T2, Microphthalmia-associated transcription factor (Homo sapiens, UniProt O75030); experiment: TRPM1 promoter luciferase signal decrease, dose response, MITF inhibitor project, cell-based, SK-MEL-5, cherry-picked, set 3 (AID 493073); format: functional
T2 sequence (O75030 whole entry): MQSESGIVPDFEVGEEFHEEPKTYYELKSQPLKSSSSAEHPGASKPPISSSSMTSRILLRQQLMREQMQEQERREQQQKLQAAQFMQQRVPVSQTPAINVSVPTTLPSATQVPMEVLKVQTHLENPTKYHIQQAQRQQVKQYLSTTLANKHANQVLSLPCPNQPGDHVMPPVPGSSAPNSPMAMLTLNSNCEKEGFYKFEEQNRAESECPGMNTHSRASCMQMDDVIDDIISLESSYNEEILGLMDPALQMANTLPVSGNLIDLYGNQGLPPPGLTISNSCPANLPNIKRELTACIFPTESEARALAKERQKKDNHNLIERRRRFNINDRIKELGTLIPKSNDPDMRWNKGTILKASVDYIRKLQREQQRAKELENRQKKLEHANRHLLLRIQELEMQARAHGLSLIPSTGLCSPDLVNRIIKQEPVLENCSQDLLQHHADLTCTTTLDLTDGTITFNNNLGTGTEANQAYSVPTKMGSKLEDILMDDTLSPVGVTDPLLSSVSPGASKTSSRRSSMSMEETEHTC

[4] = target: T3, DNA dC->dU-editing enzyme APOBEC-3A (Homo sapiens, UniProt P31941); experiment: SAR analysis of small molecule inhibitors of APOBEC3A DNA Deaminase via a fluorescence-based single-stranded DNA deaminase assay.; format: functional; settings: read-out: IC50_Mean
T3 sequence (P31941 whole entry): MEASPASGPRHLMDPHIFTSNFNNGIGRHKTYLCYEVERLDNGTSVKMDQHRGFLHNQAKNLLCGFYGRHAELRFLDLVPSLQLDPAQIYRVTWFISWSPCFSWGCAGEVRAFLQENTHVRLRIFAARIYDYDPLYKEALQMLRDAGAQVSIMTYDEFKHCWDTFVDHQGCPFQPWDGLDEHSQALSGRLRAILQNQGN

[5] = target: T4, DNA dC->dU-editing enzyme APOBEC-3G (Homo sapiens, UniProt Q9HC16); experiment: APOBEC3G deaminase inhibitors, SAR follow-up, biochemical, fluorescence, single-stranded DNA substrate (AID 602136); format: functional; settings: read-out: IC50_Mean
T4 sequence (Q9HC16 whole entry): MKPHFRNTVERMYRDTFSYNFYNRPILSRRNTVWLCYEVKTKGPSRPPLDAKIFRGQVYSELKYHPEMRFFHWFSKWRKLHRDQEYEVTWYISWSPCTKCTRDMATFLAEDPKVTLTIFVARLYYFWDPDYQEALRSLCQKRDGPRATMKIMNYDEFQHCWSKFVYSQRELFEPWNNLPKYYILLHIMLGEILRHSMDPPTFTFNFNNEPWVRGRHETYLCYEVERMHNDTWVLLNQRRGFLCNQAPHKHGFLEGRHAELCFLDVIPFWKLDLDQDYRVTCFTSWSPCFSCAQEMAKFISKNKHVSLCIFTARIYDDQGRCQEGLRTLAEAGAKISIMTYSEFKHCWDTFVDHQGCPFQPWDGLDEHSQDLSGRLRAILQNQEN

[6] = target: T3, DNA dC->dU-editing enzyme APOBEC-3A; experiment: SAR analysis of small molecule inhibitors of APOBEC3A DNA Deaminase via a fluorescence-based single-stranded DNA deaminase assay - Set 2.; format: functional; settings: read-out: IC50_Mean
[7] = target: T4, DNA dC->dU-editing enzyme APOBEC-3G; format: functional
[8] = target: Intestinal-type alkaline phosphatase (Mus musculus, UniProt P24822); experiment: PubChem AID 488785; format: functional
Chain of Intestinal-type alkaline phosphatase (Mus musculus, UniProt P24822) (P24822 whole entry): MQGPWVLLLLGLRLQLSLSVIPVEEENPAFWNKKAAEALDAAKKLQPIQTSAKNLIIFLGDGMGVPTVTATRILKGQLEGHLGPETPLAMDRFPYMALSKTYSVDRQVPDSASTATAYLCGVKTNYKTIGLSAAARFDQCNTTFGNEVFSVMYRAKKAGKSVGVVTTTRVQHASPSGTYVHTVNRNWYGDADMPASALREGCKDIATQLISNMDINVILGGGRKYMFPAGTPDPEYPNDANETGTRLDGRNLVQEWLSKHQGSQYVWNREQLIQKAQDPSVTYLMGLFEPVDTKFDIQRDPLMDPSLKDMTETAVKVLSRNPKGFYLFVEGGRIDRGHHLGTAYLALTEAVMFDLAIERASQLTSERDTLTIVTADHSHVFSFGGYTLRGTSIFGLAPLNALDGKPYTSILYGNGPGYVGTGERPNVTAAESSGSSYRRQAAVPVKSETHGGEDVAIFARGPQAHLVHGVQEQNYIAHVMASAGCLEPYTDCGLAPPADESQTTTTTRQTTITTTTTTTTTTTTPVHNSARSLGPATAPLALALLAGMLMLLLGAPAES

[9] = target: T4, DNA dC->dU-editing enzyme APOBEC-3G; experiment: SAR analysis of small molecule inhibitors of APOBEC3G DNA Deaminase via a fluorescence-based single-stranded DNA deaminase assay - Set 2.; format: functional; settings: read-out: IC50_Mean
[10] = target: T3, DNA dC->dU-editing enzyme APOBEC-3A; experiment: Dose Response confirmation of small molecule APOBEC3A DNA Deaminase Inhibitors via a fluorescence-based single-stranded DNA deaminase assay. [Related pubchem assays (depositor defined):AID493011, AID493024]; format: functional
HEK293 [11] = experiment: cells; settings: Homo sapiens
HEK293 [12] = experiment: cells; settings: Homo sapiens; remark: listed apart in the source
Protein RecA = target: T5, Protein RecA (Mycobacterium tuberculosis, UniProt P9WHJ3); experiment: Fluorescence Cell-Free Homogeneous Dose Retest to Identify Inhibitors of RecA-Intein Splicing Activity. [Related pubchem assays (depositor defined):AID2097, AID2223, AID489010, AID492950]; format: functional
T5 sequence (P9WHJ3 whole entry): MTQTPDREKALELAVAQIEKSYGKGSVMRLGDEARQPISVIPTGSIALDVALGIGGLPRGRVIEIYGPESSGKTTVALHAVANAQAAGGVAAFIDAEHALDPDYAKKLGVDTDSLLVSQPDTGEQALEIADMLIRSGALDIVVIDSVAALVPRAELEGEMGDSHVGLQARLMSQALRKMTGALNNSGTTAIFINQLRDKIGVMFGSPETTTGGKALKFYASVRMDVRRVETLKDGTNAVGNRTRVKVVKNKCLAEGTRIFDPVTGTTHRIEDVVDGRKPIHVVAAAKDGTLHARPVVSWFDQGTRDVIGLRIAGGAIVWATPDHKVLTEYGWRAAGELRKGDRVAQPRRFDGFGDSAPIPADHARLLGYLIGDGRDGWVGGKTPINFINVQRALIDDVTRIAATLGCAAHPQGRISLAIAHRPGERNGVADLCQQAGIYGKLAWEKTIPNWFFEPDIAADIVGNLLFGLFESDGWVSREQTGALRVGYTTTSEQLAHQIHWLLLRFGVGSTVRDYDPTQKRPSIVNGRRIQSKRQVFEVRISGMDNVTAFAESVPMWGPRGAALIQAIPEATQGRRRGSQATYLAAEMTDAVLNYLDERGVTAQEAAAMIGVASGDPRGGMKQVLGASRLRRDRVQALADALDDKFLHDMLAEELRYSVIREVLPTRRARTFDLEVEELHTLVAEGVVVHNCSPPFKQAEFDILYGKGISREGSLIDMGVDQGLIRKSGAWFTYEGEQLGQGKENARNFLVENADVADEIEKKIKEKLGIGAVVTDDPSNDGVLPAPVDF

Melanocortin receptor 4 = Melanocortin receptor 4 (Homo sapiens, UniProt P32245); experiment: MC4R antagonist potency on cAMP, dose response, cell-based, TR-FRET, biased antagonists (AID 602298); format: functional;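 further: antagonist potency against agonist-stimulated cAMP production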
Chain of Melanocortin receptor 4 (P32245 whole entry): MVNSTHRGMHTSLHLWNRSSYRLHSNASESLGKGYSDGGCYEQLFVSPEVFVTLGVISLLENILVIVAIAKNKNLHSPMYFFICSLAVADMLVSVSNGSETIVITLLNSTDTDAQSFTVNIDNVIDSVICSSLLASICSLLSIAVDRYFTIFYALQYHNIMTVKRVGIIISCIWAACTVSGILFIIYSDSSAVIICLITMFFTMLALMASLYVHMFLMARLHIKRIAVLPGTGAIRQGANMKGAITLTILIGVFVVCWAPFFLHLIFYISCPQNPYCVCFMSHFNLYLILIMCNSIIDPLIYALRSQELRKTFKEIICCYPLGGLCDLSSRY

[13] = target: T6, Replicative DNA helicase DnaB (Mycobacterium tuberculosis, UniProt P9WMR3); experiment: DnaB intein splicing inhibitors, dose response, biochemical, cell-free fluorescence (AID 449749); format: functional
T6 sequence (P9WMR3 whole entry): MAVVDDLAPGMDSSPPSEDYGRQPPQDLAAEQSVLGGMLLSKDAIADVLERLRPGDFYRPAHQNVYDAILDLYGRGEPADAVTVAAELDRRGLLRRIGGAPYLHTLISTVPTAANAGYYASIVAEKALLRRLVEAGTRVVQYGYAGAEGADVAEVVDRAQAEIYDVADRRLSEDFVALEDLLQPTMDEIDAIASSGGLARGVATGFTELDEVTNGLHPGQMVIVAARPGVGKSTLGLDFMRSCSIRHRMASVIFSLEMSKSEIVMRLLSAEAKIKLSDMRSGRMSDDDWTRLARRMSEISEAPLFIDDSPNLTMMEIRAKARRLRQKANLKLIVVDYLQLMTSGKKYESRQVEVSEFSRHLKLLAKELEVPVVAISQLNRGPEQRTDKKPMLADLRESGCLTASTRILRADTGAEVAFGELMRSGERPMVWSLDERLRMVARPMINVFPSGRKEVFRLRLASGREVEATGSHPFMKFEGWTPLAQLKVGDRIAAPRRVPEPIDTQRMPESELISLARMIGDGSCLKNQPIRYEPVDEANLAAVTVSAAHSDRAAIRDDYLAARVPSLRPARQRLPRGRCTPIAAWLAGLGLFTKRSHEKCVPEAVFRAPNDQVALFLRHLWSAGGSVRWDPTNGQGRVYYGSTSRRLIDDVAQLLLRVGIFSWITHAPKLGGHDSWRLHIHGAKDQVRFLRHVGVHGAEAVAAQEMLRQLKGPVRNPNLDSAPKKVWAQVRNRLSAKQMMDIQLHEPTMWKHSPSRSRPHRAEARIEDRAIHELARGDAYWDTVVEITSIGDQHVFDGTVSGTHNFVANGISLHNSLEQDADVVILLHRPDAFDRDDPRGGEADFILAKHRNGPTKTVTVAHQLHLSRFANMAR

[14] = control 3'UTR Renilla luciferase suppression, dose response, counter-screen for Shn3 inhibitor project, cell-based, Clone20-Shn3RL, cherry-picked (AID 624133); format: functional
[15] = growth suppression of beta-catenin-knockout colon cells, dose response, cell-based, HCT116, human colon tumor (AID 1045); format: functional;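 further: HCT116 colon tumor cells with beta catenin knocked out; cells exposed to compound for 60 hours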
[16] = growth suppression of PTEN-null colon cells, dose response, cell-based, HCT116 PTEN knockout (AID 1047); format: functional;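 further: HCT116 colon tumor cells with PTEN knocked out; cells exposed to compound for 60 hours before readout; potency for loss of cell viability measured by luminescence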
[17] = Shn3 3'UTR reporter inhibitors, dose response, cell-based, Clone20 osteoblasts, firefly luciferase, cherry-picked (AID 624132); format: functional;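 further: firefly luciferase luminescence from reporter carrying the Shn3 3'UTR in osteoblasts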
[18] = NIH-3T3 fibroblast cytotoxicity, dose response, cytotoxicity control, cell-based, fluorescence, Alamar Blue, secondary assay (AID 2327); format: functional;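 further: NIH-3T3 mouse fibroblasts cultured with fluconazole at 8 µg/mL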
[19] = C. albicans growth with fluconazole, confirmation, fluorescence, retest (AID 2467); format: functional, cell-based
[20] = target: Heat shock protein HSP 90-alpha (Homo sapiens, UniProt P07900); format: functional, organism-based
[21] = nonselective inhibitors of cellular cAMP signaling, dose response, counter-screen for MC4R biased antagonist project, cell-based, TR-FRET cAMP detection (AID 602305); format: functional;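 further: U2OS cells stimulated with forskolin near its EC80 as the cAMP inducer; potency is for inhibition of forskolin-stimulated cAMP signaling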

Chain of Intestinal-type alkaline phosphatase (Homo sapiens, UniProt P09923) (P09923 whole entry): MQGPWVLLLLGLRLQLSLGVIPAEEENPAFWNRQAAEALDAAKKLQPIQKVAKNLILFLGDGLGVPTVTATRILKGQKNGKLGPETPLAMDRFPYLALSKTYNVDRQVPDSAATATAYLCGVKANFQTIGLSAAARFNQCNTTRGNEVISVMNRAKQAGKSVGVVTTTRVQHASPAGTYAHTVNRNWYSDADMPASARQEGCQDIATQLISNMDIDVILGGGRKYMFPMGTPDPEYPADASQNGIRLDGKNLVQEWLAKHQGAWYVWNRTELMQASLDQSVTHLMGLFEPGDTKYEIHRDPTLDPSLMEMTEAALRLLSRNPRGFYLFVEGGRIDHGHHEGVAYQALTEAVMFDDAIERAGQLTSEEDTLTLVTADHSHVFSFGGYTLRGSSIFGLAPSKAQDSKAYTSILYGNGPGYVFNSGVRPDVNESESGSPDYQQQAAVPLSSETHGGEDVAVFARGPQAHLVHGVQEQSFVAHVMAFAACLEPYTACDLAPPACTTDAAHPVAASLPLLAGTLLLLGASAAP

Question: With `Cn1nc([N+](=O)[O-])nc1S(C)(=O)=O` as the compound, how does the IC50 [1] read?
Answer: Its IC50 is > 100 µM (inactive).

Question: What about the IC50 [2] of the same compound?
Answer: Its IC50 is 74.1 µM (active).

Question: And the AC50 [3]?
Answer: The AC50 was 9.2 µM (active).

Question: What about the IC50 [4] of the same compound?
Answer: The IC50 was 14.4 µM (inactive).

Question: And the IC50 [5]?
Answer: Its IC50 is 27.2 µM (inactive).

Question: What about the IC50 [6] of the same compound?
Answer: The IC50 was 13.1 µM (inactive).

Question: And the IC50 [7]?
Answer: The IC50 was 65.5 µM (active).

Question: And the IC50 [8]?
Answer: Its IC50 is 5.66 µM (active).

Question: And the IC50 [9]?
Answer: Its IC50 is 24.1 µM (inactive).

Question: And the IC50 [10]?
Answer: The IC50 was 4.14 µM (active).

Question: Which EC50 (HEK293 [11]) does the source give for `O=[N+]([O-])c1cc(S(=O)(=O)C(F)(F)F)ccc1Sc1nc2ccccc2s1` here?
Answer: Its EC50 is > 59.6 µM (inactive).

Question: What about the EC50 (HEK293 [12]) of the same compound?
Answer: The EC50 was > 59.6 µM (inactive).

Question: What about the EC50 (Protein RecA) of the same compound?
Answer: Its EC50 is 0.249 µM (active).

Question: And the IC50 (Melanocortin receptor 4)?
Answer: The IC50 was > 2.39 µM (active).

Question: And the AC50 [13]?
Answer: The AC50 was 1.75 µM (active).

Question: And the AC50 [14]?
Answer: The AC50 was 15.4 µM (active).

Question: And the EC50 [15]?
Answer: Its EC50 is 7.45 µM (active).

Question: And the EC50 [16]?
Answer: The EC50 was 8.04 µM (active).

Question: And the AC50 [17]?
Answer: Its AC50 is 2.45 µM (active).

Question: And the EC50 [18]?
Answer: The EC50 was 5 µM (active).

Question: What about the EC50 [19] of the same compound?
Answer: Its EC50 is > 38 µM (not active).

Question: What about the AC50 [20] of the same compound?
Answer: The AC50 was 1.75 µM (active).

Question: And the IC50 [21]?
Answer: The IC50 was > 64.6 µM (inactive).
